Entries after “also recorded” stand apart in the source; their conditions may differ.
Assays:
human breast tumor cells = experiment: Culture of human breast tumor cells, effect of medium components (Example 1); type: cell-based; conditions: preliminary experiments; compared to Retinol
Experimental: The base WIT cell culture medium contains 0.1 mg/L Calciferol (vitamin D2) and this medium is supplemented with 2-5% fetal bovine serum (FBS) to culture human ovarian carcinoma cells (WIT-OC medium). It was hypothesized that both of these components should be removed from the cell culture medium for the successful culture of human breast cancer cells because FBS contains vitamins and hormones such as vitamin D and androgens. […] Thus, charcoal stripped fetal bovine serum (csFBS) was utilized to culture breast tumor cells because activated carbon removes non-polar material such as lipophilic (lipid-related) materials (virus, certain growth factors, hormones and cytokines) regardless of molecular weight but has little effect on salts, glucose, amino acids, etc. The WIT-OC medium also contained vitamin A acetate (Retinol) which is a weaker form of vitamin A, compared to all-trans-retinoic acid (ATRA).
Thus, in order to formulate a cell culture medium optimized to culture human breast tumor cells, as opposed to ovarian tumors, and other tumors, a WIT cell culture medium was prepared without any vitamin D, vitamin A, or androgens, and this medium was supplemented 100 nM ATRA, and 0.5-2% charcoal stripped fetal bovine serum (csFBS). We refer to this medium as WIT-BC, or WIT-BCe when estrogen is added.

[1] = tested on: breast cancer cell lines (T47D, ZR751, MCF7 and BT474); experiment: Breast cancer cell line proliferation assay with and without AR agonist (FIG. 8), trypan blue/Cellometer count; type: cell-based; conditions: 10 nM with 17 beta-Estradiol (10 nM), phenol-red free DMEM with 5% csFBS, 4 days
Experimental: Four different breast cancer cell lines (T47D, ZR751, MCF7 and BT474) were cultured both with and without AR agonist […]. […] After 3 days, an AR agonist R1881 (10 nM) and 17 beta-Estradiol (10 nM) were added to the media. […] All the conditions were carried out in triplicate and the experiments were repeated at least twice.

Compound: CC1=C(/C=C/C(C)=C/C=C/C(C)=C/C(=O)O)C(C)(C)CCC1 [ATRA, all-trans-retinoic acid]
- effect on growth/culture of breast tumor cells (human breast tumor cells): promoting the growth of the breast tumor cells; also recorded: needed for the optimum culture

Compound: C[C@]1(O)CC[C@H]2[C@@H]3CCC4=CC(=O)CCC4=C3C=C[C@@]21C [R1881, methyltrienolone]
- effect on breast cancer cell proliferation [1]: inhibitory effect

Source: patent publication US11332712B2, “Cell culture media and method for culturing breast cancer cells” (UNIVERSITY OF MIAMI, priority 2013, dated 2022)
